Assay results published in article PMC8704611, “Synthesis, Molecular Docking Analysis, and Biological Evaluations of Saccharide-Modified Sulfonamides as Carbonic Anhydrase IX Inhibitors” (International Journal of Molecular Sciences, 2021).

Assays:
hCA II = hCA II (Homo sapiens, UniProt P00918); test: CA inhibition assay (hydrolysis of 4-nitrophenylacetate); format: biochemical; conditions: 4-NPA hydrolysis; three independent assays, relative errors 5–10%
From the text: (§1) Carbonic anhydrase has the ability to catalyse the hydrolysis of 4-NPA. […] More detailed operations and specific parameters are as reported earlier.

hCA IX = hCA IX (Homo sapiens, UniProt Q16790); test: as above; format: biochemical; conditions: 4-NPA hydrolysis; three independent assays, relative errors 5–10%
From the text: as §1

Structure (SMILES) | IC50 (hCA II) | IC50 (hCA IX) | melting point
NS(=O)(=O)c1ccc(-n2cc(-c3ccc(NC(=O)CCCC(=O)N[C@@H]4O[C@H](CO)[C@@H](O)[C@H](O)[C@H]4O)c(Cl)c3)nn2)cc1 [Compound 16k, N^1-(2-chloro-4-(1-(4-sulfamoylphenyl)-1H-1,2,3-triazol-4-yl)phenyl)-N^5-((2R,3R,4S,5S,6R)-3,4,5-trihydroxy-6-(hydroxymethyl)tetrahydro-2H-pyran-2-yl)glutaramide] | 91 nM | 290 nM | 
NS(=O)(=O)c1ccc(-n2cc(-c3ccc(NC(=O)CCCC(=O)N[C@@H]4O[C@H](CO)[C@@H](O)[C@H](O)[C@H]4O)c(F)c3)nn2)cc1 [Compound 16j, N^1-(2-fluoro-4-(1-(4-sulfamoylphenyl)-1H-1,2,3-triazol-4-yl)phenyl)-N^5-((2R,3R,4S,5S,6R)-3,4,5-trihydroxy-6-(hydroxymethyl)tetrahydro-2H-pyran-2-yl)glutaramide] | 88.4 nM | 230 nM | 
NS(=O)(=O)c1ccc(-n2cc(-c3ccc(NC(=O)CCCC(=O)N[C@@H]4O[C@H](CO)[C@@H](O)[C@H](O)[C@H]4O)c([N+](=O)[O-])c3)nn2)cc1 [Compound 16o, N^1-(2-nitro-4-(1-(4-sulfamoylphenyl)-1H-1,2,3-triazol-4-yl)phenyl)-N^5-((2R,3R,4S,5S,6R)-3,4,5-trihydroxy-6-(hydroxymethyl)tetrahydro-2H-pyran-2-yl)glutaramide] | 129 nM | 216 nM | 
NS(=O)(=O)c1ccc(-n2cc(-c3cc(F)c(NC(=O)CCCC(=O)N[C@@H]4O[C@H](CO)[C@@H](O)[C@H](O)[C@H]4O)c(F)c3)nn2)cc1 [Compound 16n, N^1-(2,6-difluoro-4-(1-(4-sulfamoylphenyl)-1H-1,2,3-triazol-4-yl)phenyl)-N^5-((2R,3R,4S,5S,6R)-3,4,5-trihydroxy-6-(hydroxymethyl)tetrahydro-2H-pyran-2-yl)glutaramide] | 177 nM | 352 nM | 
COc1cc(-c2cn(-c3ccc(S(N)(=O)=O)cc3)nn2)ccc1NC(=O)CCC(=O)N[C@@H]1O[C@H](CO)[C@@H](O)[C@H](O)[C@H]1O [Compound 16f, N^1-(2-methoxy-4-(1-(4-sulfamoylphenyl)-1H-1,2,3-triazol-4-yl)phenyl)-N^4-((2R,3R,4S,5S,6R)-3,4,5-trihydroxy-6-(hydroxymethyl)tetrahydro-2H-pyran-2-yl)succinamide] | 112 nM | 329 nM | 
Nc1ccc(-c2cn(-c3ccc(S(N)(=O)=O)cc3)nn2)cc1[N+](=O)[O-] [Compound 14h, 4-(4-(4-Amino-3-nitrophenyl)-1H-1,2,3-triazol-1-yl)benzenesulfonamide] | 102 nM | 58.2 nM | 222 to 225 °C
NS(=O)(=O)c1ccc(-n2cc(-c3ccc(NC(=O)CCC(=O)N[C@@H]4O[C@H](CO)[C@@H](O)[C@H](O)[C@H]4O)c(Cl)c3)nn2)cc1 [Compound 16d, N^1-(2-chloro-4-(1-(4-sulfamoylphenyl)-1H-1,2,3-triazol-4-yl)phenyl)-N^4-((2R,3R,4S,5S,6R)-3,4,5-trihydroxy-6-(hydroxymethyl)tetrahydro-2H-pyran-2-yl)succinamide] | 90.8 nM | 100 nM | 
COc1cc(-c2cn(-c3ccc(S(N)(=O)=O)cc3)nn2)ccc1N [Compound 14f, 4-(4-(4-Amino-3-methoxyphenyl)-1H-1,2,3-triazol-1-yl)benzenesulfonamide] | 100 nM | 120 nM | 230 to 233 °C
NS(=O)(=O)c1ccc(-n2cc(-c3cc(F)c(NC(=O)CCC(=O)N[C@@H]4O[C@H](CO)[C@@H](O)[C@H](O)[C@H]4O)c(F)c3)nn2)cc1 [Compound 16g, N^1-(2,6-difluoro-4-(1-(4-sulfamoylphenyl)-1H-1,2,3-triazol-4-yl)phenyl)-N^4-((2R,3R,4S,5S,6R)-3,4,5-trihydroxy-6-(hydroxymethyl)tetrahydro-2H-pyran-2-yl)succinamide] | 149 nM | 544 nM | 

Other lines, results leading:

IC50 (hCA II) | IC50 (hCA IX) | melting point | Structure (SMILES)
70.2 nM | 150 nM |  | NS(=O)(=O)c1ccc(-n2cc(-c3ccc(NC(=O)CCC(=O)N[C@@H]4O[C@H](CO)[C@@H](O)[C@H](O)[C@H]4O)c(F)c3)nn2)cc1 [Compound 16c, N^1-(2-fluoro-4-(1-(4-sulfamoylphenyl)-1H-1,2,3-triazol-4-yl)phenyl)-N^4-((2R,3R,4S,5S,6R)-3,4,5-trihydroxy-6-(hydroxymethyl)tetrahydro-2H-pyran-2-yl)succinamide]
26 nM | 270 nM |  | NS(=O)(=O)c1ccc(-n2cc(-c3ccc(NC(=O)CCCC(=O)N[C@@H]4O[C@H](CO)[C@@H](O)[C@H](O)[C@H]4O)cc3)nn2)cc1 [Compound 16h, N^1-(4-(1-(4-sulfamoylphenyl)-1H-1,2,3-triazol-4-yl)phenyl)-N^5-((2R,3R,4S,5S,6R)-3,4,5-trihydroxy-6-(hydroxymethyl)tetrahydro-2H-pyran-2-yl)glutaramide]
10.1 nM | 300 nM |  | NS(=O)(=O)c1ccc(-n2cc(-c3cccc(NC(=O)CCCC(=O)N[C@@H]4O[C@H](CO)[C@@H](O)[C@H](O)[C@H]4O)c3)nn2)cc1 [Compound 16i, N^1-(3-(1-(4-sulfamoylphenyl)-1H-1,2,3-triazol-4-yl)phenyl)-N^5-((2R,3R,4S,5S,6R)-3,4,5-trihydroxy-6-(hydroxymethyl)tetrahydro-2H-pyran-2-yl)glutaramide]
87 nM | 107 nM | 280 to 283 °C | Nc1c(F)cc(-c2cn(-c3ccc(S(N)(=O)=O)cc3)nn2)cc1F [Compound 14g, 4-(4-(4-Amino-3,5-difluorophenyl)-1H-1,2,3-triazol-1-yl)benzenesulfonamide]
19.3 nM | 54.4 nM | 256 to 258 °C | Nc1ccc(-c2cn(-c3ccc(S(N)(=O)=O)cc3)nn2)cc1 [Compound 14a, 4-(4-(4-Aminophenyl)-1H-1,2,3-triazol-1-yl)benzenesulfonamide]
39.9 nM | 71 nM | 201 to 203 °C | Nc1ccc(-c2cn(-c3ccc(S(N)(=O)=O)cc3)nn2)cc1Cl [Compound 14d, 4-(4-(4-Amino-3-chlorophenyl)-1H-1,2,3-triazol-1-yl)benzenesulfonamide]
15.7 nM | 40.4 nM | 245 to 247 °C | Nc1ccc(-c2cn(-c3ccc(S(N)(=O)=O)cc3)nn2)cc1F [Compound 14c, 4-(4-(4-Amino-3-fluorophenyl)-1H-1,2,3-triazol-1-yl)benzenesulfonamide]
25.6 nM | 161 nM |  | Cc1cc(-c2cn(-c3ccc(S(N)(=O)=O)cc3)nn2)ccc1NC(=O)CCCC(=O)N[C@@H]1O[C@H](CO)[C@@H](O)[C@H](O)[C@H]1O [Compound 16l, N^1-(2-methyl-4-(1-(4-sulfamoylphenyl)-1H-1,2,3-triazol-4-yl)phenyl)-N^5-((2R,3R,4S,5S,6R)-3,4,5-trihydroxy-6-(hydroxymethyl)tetrahydro-2H-pyran-2-yl)glutaramide]
12.3 nM | 50.4 nM | 270 to 273 °C | Nc1cccc(-c2cn(-c3ccc(S(N)(=O)=O)cc3)nn2)c1 [Compound 14b, 4-(4-(3-Aminophenyl)-1H-1,2,3-triazol-1-yl)benzenesulfonamide]
37.9 nM | 111 nM | 264 to 266 °C | Cc1cc(-c2cn(-c3ccc(S(N)(=O)=O)cc3)nn2)ccc1N [Compound 14e, 4-(4-(4-Amino-3-methylphenyl)-1H-1,2,3-triazol-1-yl)benzenesulfonamide]
